Assay [1] concerns the target T1, human PHD2 (Homo sapiens (Human), UniProt Q9GZT9). The assay is described as follows: Test 1: human PHD2 inhibitory activity, [14C]-2-oxoglutarate to [14C]-succinic acid radiometric assay with HIF-1α peptide. Particulars: test compound's concentration 1 μM; Test 1, [14C]-2-oxoglutarate radiometric assay; read-out: Percent inhibition (% at 1 μM). It is filed as biochemical. In outline:
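Lysate from HighFive insect cells expressing human PHD2 (4 μg/well) was incubated for 15 min at 37° C with a 19-residue HIF-1α peptide and [14C]-2-oxoglutarate. Unreacted 2-oxoglutarate was precipitated with DNPH and filtered off, and [14C]-succinic acid was counted. Inhibition was calculated relative to substrate-free and compound-free controls.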

Assay [2] addresses T1, human PHD2. The assay is described as follows: Test 2: human PHD2 inhibitory activity, fluorescence polarization assay of HIF-1α peptide proline hydroxylation. In kind it is biochemical. Particulars: test compound's concentration 1 μM; Test 2, fluorescence polarization assay; read-out: Percent inhibition (% at 1 μM). In outline:
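Enzyme from lysate of cells expressing human PHD2 (NM_022051), 40 ng/well, added to compound and 19-residue HIF-1α peptide substrate; 20 min at 30° C., EDTA quench. Prolyl hydroxylation detected by HIF-OH antibody binding via fluorescence polarization; inhibition relative to compound-free wells.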

Structures are written as SMILES.

We go through five compounds from patent publication US9422240B2, “Partially saturated nitrogen-containing heterocyclic compound” (TAISHO PHARMACEUTICAL CO., LTD, priority 2012, dated 2016).

T1 sequence (Q9GZT9 whole entry): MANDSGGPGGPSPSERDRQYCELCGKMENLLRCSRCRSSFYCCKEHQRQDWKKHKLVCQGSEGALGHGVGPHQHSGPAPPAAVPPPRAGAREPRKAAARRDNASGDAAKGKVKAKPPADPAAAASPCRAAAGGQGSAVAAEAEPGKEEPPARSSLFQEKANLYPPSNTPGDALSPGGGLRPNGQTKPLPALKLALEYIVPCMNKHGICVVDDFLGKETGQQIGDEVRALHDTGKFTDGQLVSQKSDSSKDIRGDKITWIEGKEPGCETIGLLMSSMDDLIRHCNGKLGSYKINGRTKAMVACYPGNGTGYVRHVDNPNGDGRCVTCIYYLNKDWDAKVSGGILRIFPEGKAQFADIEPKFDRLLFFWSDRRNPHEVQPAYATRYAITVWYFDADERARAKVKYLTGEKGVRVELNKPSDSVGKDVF

Broadly, the inhibition is the change of the read-out against control, counted positive when it falls. Consider `COc1cccc(CN2CCC(O)=C(C(=O)NCC(=O)O)C2=O)c1` [Ex. 1-61], for which the results for the inhibition at 1 µM in assay [1] and in assay [2] were 58% and 71%, respectively.
Regarding `O=C(O)CNC(=O)C1=C(O)CCN(Cc2ccc(Cc3ccccc3)cc2)C1=O` [Ex. 1-42], the values for the inhibition at 1 µM in assay [1] and in assay [2] were 90% and 94%, respectively.
With `Cc1ccc(CN2C(=O)C(C(=O)NCC(=O)O)=C(O)CC2(C)C)cc1F` [Ex. 1-184], the inhibition at 1 µM in assay [1] worked out at 59%; in assay [2] it was 60%.
The like results for `O=C(O)CNC(=O)C1=C(O)CC(C(F)(F)F)N(Cc2ccc(-c3ccccc3)cc2)C1=O` (stereo not shown) [Ex. 1-81] were, in that order, 72% and 64%.
The matching figures for `Cc1ccc(Oc2ccc(CN3C(=O)C(C(=O)NCC(=O)O)=C(O)CC34CCC4)cn2)cc1` [Ex. 1-280]: 109% and 98%.
